Reference: ChEMBL document CHEMBL1128931, “Synthesis and biological evaluation of pyrido[2,3-b]pyrazine and pyrido[2,3-b]pyrazine-n-oxide as selective glycine antagonists” (Bioorg Med Chem Lett, 1996)

Tests used:
[1] = target: Glutamate receptor ionotropic, NMDA 1 (Rattus norvegicus, UniProt P35439); assay: In vitro binding affinity for glycine site on the NMDA receptor.
Rattus norvegicus [2] = assay: Compound was evaluated in vivo for antagonistic activity against glycine site in NMDA induced convulsion model in rats after iv administration.; format: functional
Rattus norvegicus [3] = assay: Compound was evaluated in vivo for antagonistic activity against glycine site in NMDA induced convulsion model in rats after ip administration.; format: functional

| Structure (SMILES) | Ki [1] [nM] | ED50 (Rattus norvegicus [2]) [mg/kg] | ED50 (Rattus norvegicus [3]) [mg/kg] |
| --- | --- | --- | --- |
| Oc1nc2ccc(Cl)nc2nc1O | 6170 |  |  |
| Oc1nc2nc(Cl)c(Cl)c(Cl)c2nc1O | 110 |  |  |
| Oc1nc2cc(C(F)(F)F)c(Cl)nc2nc1O | 427 | 15 |  |
| [O-][n+]1c(Cl)c(Cl)cc2nc(O)c(O)nc21 | 112 | 14 | 24 |
| Cc1c(Br)c(Cl)[n+]([O-])c2nc(O)c(O)nc12 | 3020 |  |  |
| Cc1c(Cl)c(Cl)[n+]([O-])c2nc(O)c(O)nc12 | 3160 |  | 30 |
| [O-][n+]1c(Cl)c(Br)cc2nc(O)c(O)nc21 | 112 | 18 | 45 |
| Cc1c(Br)c(Cl)nc2nc(O)c(O)nc12 | 282 | 10 |  |
| Cc1c(Br)cnc2nc(O)c(O)nc12 | 1580 |  |  |
| Cc1c(Cl)c[n+]([O-])c2nc(O)c(O)nc12 | 372 | 3 | 7 |
| CCCc1nc2nc(O)c(O)nc2c(C)c1Cl | 2750 |  |  |
| [O-][n+]1cc(I)cc2nc(O)c(O)nc21 | 741 |  | 21 |
| Oc1nc2cc(I)c(Cl)nc2nc1O | 204 |  |  |
| Cc1c(I)cc2nc(O)c(O)nc2[n+]1[O-] | 224 |  |  |
| [O-][n+]1cc(C(F)(F)F)cc2nc(O)c(O)nc21 | 427 | 15 |  |
| Cc1c(I)cnc2nc(O)c(O)nc12 | 1780 |  |  |
| Cc1c(Cl)cnc2nc(O)c(O)nc12 | 2880 |  | 20 |

| Structure (SMILES) | Ki [1] [nM] | ED50 (Rattus norvegicus [2]) [mg/kg] | ED50 (Rattus norvegicus [3]) [mg/kg] |
| --- | --- | --- | --- |
| Cc1c(I)c[n+]([O-])c2nc(O)c(O)nc12 | 912 |  | 30 |
| [O-][n+]1cc(C(F)(F)F)c(Cl)c2nc(O)c(O)nc21 | 3720 |  | 50 |
| Cc1c(Br)c[n+]([O-])c2nc(O)c(O)nc12 | 537 | 5 | 9 |
| [O-][n+]1cc(Cl)cc2nc(O)c(O)nc21 | 513 |  |  |
| [O-][n+]1c(Cl)ccc2nc(O)c(O)nc21 | 4680 |  |  |
| Oc1nc2ncc(C(F)(F)F)c(Cl)c2nc1O | 1580 |  |  |
| Cc1nc2nc(O)c(O)nc2cc1I | 468 |  |  |
| Cc1nc2nc(O)c(O)nc2c(C)c1Cl | 813 |  |  |
| Oc1nc2cc(Cl)c(Cl)nc2nc1O | 186 | 0.7 | 41 |
| Cc1c(Cl)c(Cl)nc2nc(O)c(O)nc12 | 191 |  |  |
| Oc1nc2cc(Br)c(Cl)nc2nc1O |  | 20 | 100 |
| Oc1nc2cc(C(F)(F)F)cnc2nc1O | 501 | 13 | 27 |
| [O-][n+]1c(Cl)c(I)cc2nc(O)c(O)nc21 | 209 |  |  |
| CCCc1c(Cl)cc2nc(O)c(O)nc2[n+]1[O-] | 457 |  |  |
| [O-][n+]1c(Cl)c(C(F)(F)F)cc2nc(O)c(O)nc21 | 513 | 30 | 60 |
| CCCc1nc2nc(O)c(O)nc2cc1Cl | 1510 |  |  |
